Test results reported in patent publication US20090252751A1, “Immune adjuvant comprising ubiquinone” (priority 2007, published 2009).

Experiments:
Format in all cases: in vivo
[1] = system: mice; experiment: Production amount of antibody in mice by ELISA with CoQ2, CoQ4, CoQ6 or CoQ10 as immunoadjuvant (Test Example 3); conditions: used as immunoadjuvant together with antigenic substance; serum sample on the 25th day; ELISA absorbance (FIG. 3)
Method: The following test was carried out according to the procedure of Text example 1 by using ELISA to confirm the amount of antibody in mice produced upon the administration of coenzyme Q2 (n=2; CoQ2), coenzyme Q4 (n=4; CoQ4), coenzyme Q6 (n=6; CoQ6) or coenzyme Q10 (n=10; CoQ10) together with an antigenic substance. The case where only an antigenic substance had been administered was selected as a reference example in the test.
As a result, the average of the absorbance for the serum sample on the 25th day from the start of the test in each group was as shown in FIG. 3.

[2] = system: Balb/c mice; experiment: Production amount of antibody in mouse serum by ELISA after dermal administration of antigenic substance with immunoadjuvant (Test Example 1)
[3] = system: Balb/c mice; experiment: Measurement of IgG1/IgG2 ratio in blood sample as index of Th2/Th1 balance (Test Example 2)
Method: The blood sample collected on the 25th day from the start of the test was provided, and the IgG1/IgG2 ratio was measured as an index of Th2/Th1 balance.
Further, a blood sample obtained by inoculating only the antigenic substance by intraperitoneal administration instead of the dermal administration at the same time as in the administration schedule in Test Example 1 was used as a control blood sample for comparison.
The IgG1/IgG2 ratio was measured with a Mouse Monoclonal Antibody Isotyping Reagents kit (SIGMA).
Specifically, a mouse serum was diluted with PBS by a factor of 1000 to give a solution. The solution (100 μL) was added to wells in a plate and was incubated at 37° C. for one hr. Next, each well was washed three times with PBS, and 100 μL of isotyping specific reagents (reagents containing IgA, IgG1, IgG2a, and IgG2b), which had been diluted by a factor of 1000, were added to the wells followed by incubation at room temperature for 30 min. Each well was washed three times with PBST. A peroxidase labelled […] (manufactured by SIGMA) (100 μL), which had been diluted with PBST by a factor of 5000, was added to the wells, and the wells were allowed to stand at room temperature for one hr. The wells were then washed three times with PBST. […] For each well, the absorbance was measured with Multiscan Ascent (manufactured by Thermo Labsystems, wave length 405 nm).

For `COC1=C(OC)C(=O)C(C/C=C(\C)CC/C=C(\C)CC/C=C(\C)CC/C=C(\C)CC/C=C(\C)CCC=C(C)C)=C(C)C1=O` [coenzyme Q6], the “production amount of the antibody compared with the case where only the antigenic substance was administered” value [1] was “larger”.
For cholera toxin [reference compound], the “average±standard error of the absorbance (amount of produced antibody, ELISA)” value ([2]; mouse, in vivo) was 0.551±0.202 and the “IgG1/IgG2 ratio (given as average of the absorbance)” value ([3]; mouse, in vivo) was 1.46.
For `COC1=C(OC)C(=O)C(C/C=C(\C)CCC=C(C)C)=C(C)C1=O` [coenzyme Q2], the “production amount of the antibody compared with the case where only the antigenic substance was administered” value [1] was “larger”.
With `COC1=C(OC)C(=O)C(C/C=C(\C)CC/C=C(\C)CC/C=C(\C)CCC=C(C)C)=C(C)C1=O` [coenzyme Q4] the “production amount of the antibody compared with the case where only the antigenic substance was administered” value [1] was “larger”.
`COC1=C(OC)C(=O)C(C/C=C(\C)CC/C=C(\C)CC/C=C(\C)CC/C=C(\C)CC/C=C(\C)CC/C=C(\C)CC/C=C(\C)CC/C=C(\C)CC/C=C(\C)CCC=C(C)C)=C(C)C1=O` [coenzyme Q10] was tested, and the “average±standard error of the absorbance (amount of produced antibody, ELISA)” value ([2]; dermal administration (tape preparation), serum sample on the 25th day from the start of the test, serum diluted 1000-fold, 405 nm, n=4) was 0.670±0.033, the “IgG1/IgG2 ratio (given as average of the absorbance)” value ([3]; dermal administration of the antigenic substance together with adjuvant, blood sample on the 25th day) was 2.28 and the “production amount of the antibody compared with the case where only the antigenic substance was administered” value [1] was “larger”.
